According to patent US9840507B2, “5,6-dihydro-imidazo[1,2-a]pyrazin-8-ylamine derivatives useful as inhibitors of beta-secretase (BACE)” (Janssen Pharmaceutica, NV, priority 2010, dated 2017):

Tests used:
[1] = tested on: brain levels of soluble Aβ42; assay: In vivo efficacy: brain Aβ42 lowering (ELISA); parameters: species or system mouse; details: 30 mpk
Excerpt: (§1) To determine whether acute administration of an Aβ42 peptide lowering agent would reduce Aβ peptide levels in vivo, non-transgenic rodents, e.g. mice or rats were used. Animals treated with the Aβ peptide lowering agent were examined and compared to those untreated or treated with vehicle and brain levels of soluble Aβ42 and total Aβ were quantitated by standard techniques, for example, using ELISA. Treatment periods varied from hours (h) to days and were adjusted based on the results of the Aβ42 lowering once a time course of onset of effect could be established.
(§2) A typical protocol for measuring Aβ42 lowering in vivo is shown but it is only one of many variations that could be used to optimize the levels of detectable Aβ. For example, Aβpeptide lowering compounds were formulated in 20% hydroxypropyl β cyclodextrin. The Aβ peptide lowering agents were administered as a single oral dose (p.o.) or a single subcutaneous dose (s.c.) to overnight fasted animals. After a certain time, usually 2 or 4 h (as indicated in Table 19), the animals were sacrificed and Aβ42 levels were analysed.
(§3) Blood was collected by decapitation and exsanguinations in EDTA-treated collection tubes. Blood was centrifuged at 1900 g for 10 minutes (min) at 4° C. and the plasma recovered and flash frozen for later analysis. The brain was removed from the cranium and hindbrain. The cerebellum was removed and the left and right hemisphere were separated. The left hemisphere was stored at −18° C. for quantitative analysis of test compound levels. The right hemisphere was rinsed with phosphate-buffered saline (PBS) buffer and immediately frozen on dry ice and stored at −80° C. until homogenization for biochemical assays.
(§4) Mouse brains from non-transgenic animals were resuspended in 8 volumes of 0.4% DEA (diethylamine)/50 mM NaCl containing protease inhibitors (Roche-11873580001 or 04693159001) per gram of tissue, e.g. for 0.158 g brain, add 1.264 ml of 0.4% DEA. All samples were homogenized in the FastPrep-24 system (MP Biomedicals) using lysing matrix D (MPBio #6913-100) at 6 m/s for 20 seconds. Homogenates were centrifuged at 221.300×g for 50 min. The resulting high speed supernatants were then transferred to fresh eppendorf tubes. Nine parts of supernatant were neutralized with 1 part 0.5 M Tris-HCl pH 6.8 and used to quantify Aβtotal and Aβ42.
(§5) To quantify the amount of Aβtotal and Aβ42 in the soluble fraction of the brain homogenates, Enzyme-Linked-Immunosorbent-Assays were used. Briefly, the standards (a dilution of synthetic Aβ1-40 and Aβ1-42, Bachem) were prepared in 1.5 ml Eppendorf tube in Ultraculture, with final concentrations ranging from 10000 to 0.3 pg/ml. The samples and standards were co-incubated with HRPO-labelled N-terminal antibody for Aβ42 detection and with the biotinylated mid-domain antibody 4G8 for Aβtotal detection. 50 μl of conjugate/sample or conjugate/standards mixtures were then added to the antibody-coated plate (the capture antibodies selectively recognize the C-terminal end of Aβ42, antibody JRF/cAβ42/26, for Aβ42 detection and the N-terminus of Aβ, antibody JRF/rAβ/2, for Aβtotal detection). The plate was allowed to incubate overnight at 4° C. in order to allow formation of the antibody-amyloid complex. Following this incubation and subsequent wash steps the ELISA for Aβ42 quantification was finished by addition of Quanta Blu fluorogenic peroxidase substrate according to the manufacturer's instructions (Pierce Corp., Rockford, Il). A reading was performed after 10 to 15 min (excitation 320 nm/emission 420 nm).
In this model at least 20% Aβ42 lowering compared to untreated animals would be advantageous.

brain levels of total Aβ = assay: In vivo efficacy: brain Aβtotal lowering (ELISA); parameters: species or system mouse; details: 30 mpk
Excerpt: as §1, §2, §3, §4, §5
For Aβtotal detection, a Streptavidine-Peroxidase-Conjugate was added, followed 60 min later by an additional wash step and addition of Quanta Blu fluorogenic peroxidase substrate according to the manufacturer's instructions (Pierce Corp., Rockford, Il). A reading was performed after 10 to 15 min (excitation 320 nm/emission 420 nm).

[2] = tested on: Aβtotal produced and secreted into the medium of human neuroblastoma SKNBE2 cells; assay: Cellular αlisa assay in SKNBE2 cells, Aβtotal; format: cell-based; details: Homo sapiens, SKNBE2, 18 h, SKNBE2 cells expressing hAPP695, incubated for 18 hours; read-out: Cellular αlisa assay in SKNBE2 cells Aβtotal pIC50 (converted)
Protocol: (§6) In two αlisa assays the levels of Aβtotal and Aβ42 produced and secreted into the medium of human neuroblastoma SKNBE2 cells are quantified. The assay is based on the human neuroblastoma SKNBE2 expressing the wild type Amyloid Precursor Protein (hAPP695). The compounds are diluted and added to these cells, incubated for 18 hours and then measurements of Aβ42 and Aβtotal are taken. Aβtotal and Aβ42 are measured by sandwich αlisa. αlisa is a sandwich assay using biotinylated antibody AbN/25 attached to streptavidin coated beads and antibody Ab4G8 or cAb42/26 conjugated acceptor beads for the detection of Aβtotal and Aβ42 respectively. In the presence of Aβtotal or Aβ42, the beads come into close proximity. The excitation of the Donor beads provokes the release of singlet oxygen molecules that triggers a cascade of energy transfer in the Acceptor beads, resulting in light emission. Light emission is measured after 1 hour incubation (excitation at […] and emission at 615 nm).
(§7) A best-fit curve is fitted by a minimum sum of squares method to the plot of % Controlmin versus compound concentration.
(§8) LC=Median of the low control values
(§9) =Low control: cells preincubated without compound, without biotinylated Ab in the αlisa
(§10) HC=Median of the High control values
(§11) =High Control: cells preincubated without compound % Effect=100−[(sample−LC)/(HC−LC)*100] % Control=(sample/HC)*100% % Controlmin=(sample−LC)/(HC−LC)*100

[3] = tested on: Aβ42 produced and secreted into the medium of human neuroblastoma SKNBE2 cells; assay: Cellular αlisa assay in SKNBE2 cells, Aβ42; format: cell-based; details: Homo sapiens, SKNBE2, 18 h, SKNBE2 cells expressing hAPP695, incubated for 18 hours; read-out: Cellular αlisa assay in SKNBE2 cells Aβ42 pIC50 (converted)
Protocol: as §6, §7, §8, §9, §10, §11

[4] = biological target: T1, recombinant BACE1 protein (Homo sapiens, UniProt P56817); assay: Biochemical FRET based assay; details: recombinant BACE1 1 μg/ml, 10 μm substrate, 120 minutes, room temperature, pH 5.0; read-out: Biochemical FRET based assay pIC50 (converted)
T1 construct: recombinant BACE1 protein in a final concentration of 1 μg/ml
Excerpt: This assay is a Fluorescence Resonance Energy Transfer Assay (FRET) based assay. The substrate for this assay is an APP derived 13 amino acids peptide that contains the ‘Swedish’ Lys-Met/Asn-Leu mutation of the amyloid precursor protein (APP) β-secretase cleavage site. This substrate also contains two fluorophores: (7-methoxycoumarin-4-yl) acetic acid (Mca) is a fluorescent donor with excitation wavelength at 320 nm and emission at 405 nm and 2,4-Dinitrophenyl (Dnp) is a proprietary quencher acceptor. […] Upon cleavage by BACE1, the fluorophore Mca is separated from the quenching group Dnp, restoring the full fluorescence yield of the donor. The increase in fluorescence is linearly related to the rate of proteolysis (Koike H et al. J. Biochem. 1999, 126, 235-242).
Briefly in a 384-well format recombinant BACE1 protein in a final concentration of 1 μg/ml is incubated for 120 minutes at room temperature with 10 μm substrate in incubation buffer (40 mM Citrate buffer pH 5.0, 0.04% PEG, 4% DMSO) in the absence or presence of compound. Next the amount of proteolysis is directly measured by fluorescence measurement at T=0 and T=120 (excitation at 320 nm and emission at 405 nm).
as §8
=Low control: Reaction without enzyme
as §10
=High Control: Reaction with enzyme % Effect=100−[(sample−LC)/(HC−LC)*100] % Control=(sample/HC)*100% % Controlmin=(sample−LC)/(HC−LC)*100

T1 sequence (P56817 46-501): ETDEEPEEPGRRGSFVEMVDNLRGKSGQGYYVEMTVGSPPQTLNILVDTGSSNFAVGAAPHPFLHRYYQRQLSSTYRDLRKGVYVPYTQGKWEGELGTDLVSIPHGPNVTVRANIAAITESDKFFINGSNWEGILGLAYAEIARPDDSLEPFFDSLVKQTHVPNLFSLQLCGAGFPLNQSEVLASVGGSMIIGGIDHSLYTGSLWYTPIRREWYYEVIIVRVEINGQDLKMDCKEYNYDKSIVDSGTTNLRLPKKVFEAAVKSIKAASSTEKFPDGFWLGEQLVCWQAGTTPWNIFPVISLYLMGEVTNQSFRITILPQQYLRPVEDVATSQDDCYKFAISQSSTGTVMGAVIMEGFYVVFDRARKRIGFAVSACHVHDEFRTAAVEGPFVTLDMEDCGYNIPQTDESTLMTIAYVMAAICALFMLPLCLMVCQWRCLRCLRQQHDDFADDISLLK

SMILES | Aβ42 (% Ctrl)_Mean ([1]; s.c., 2 h after administration) | Aβtotal (% Ctrl)_Mean (brain levels of total Aβ; s.c., 2 h after administration) | IC50 [2] | IC50 [3] | IC50 [4] | Aβ42 (% Ctrl)_Mean ([1]; p.o., 2 h after administration) | Aβtotal (% Ctrl)_Mean (brain levels of total Aβ; p.o., 2 h after administration) | Aβ42 (% Ctrl)_Mean ([1]; s.c., 4 h after administration) | Aβtotal (% Ctrl)_Mean (brain levels of total Aβ; s.c., 4 h after administration)
CC1(c2cc(NC(=O)c3ccc(F)cn3)ccc2F)Cn2ccnc2C(N)=N1 (single isomer, unassigned) [Compound 10] | 45 % Ctrl | 53 % Ctrl | 50.1 nM | 58.9 nM | 214 nM |  |  |  | 
C[C@@]1(c2cc(NC(=O)c3ccc(C#N)cn3)ccc2F)Cn2ccnc2C(N)=N1 [Compound 18] |  |  | 5.62 nM | 6.31 nM |  | 38 % Ctrl | 52 % Ctrl |  | 
C[C@@]1(c2cc(NC(=O)c3ccc(F)cn3)ccc2F)Cn2cc(C(F)(F)F)nc2C(N)=N1 [Compound 24] |  |  | 33.9 nM | 38.9 nM | 132 nM |  |  | 50 % Ctrl | 67 % Ctrl
C[C@@]1(c2cc(NC(=O)c3ncc(C#N)cc3Cl)ccc2F)Cn2ccnc2C(N)=N1 [Compound 21] | 33 % Ctrl | 7 % Ctrl | 9.55 nM | 9.33 nM | 49 nM |  |  |  | 
COc1cnc(C(=O)Nc2ccc(F)c(C3(C)Cn4ccnc4C(N)=N3)c2)cn1 (single isomer, unassigned) [Compound 9] | 57 % Ctrl | 49 % Ctrl | 31.6 nM | 35.5 nM | 148 nM | 40 % Ctrl | 63 % Ctrl |  | 
